Experimental data reported in patent US20190284136A1, “INDOLINE DERIVATIVES” (ViiV HEALTHCARE UK LIMITED, priority 2016, published 2019).

Test system: HIV
Assay: Table 1 IC50 of the examples (assay method not given; patent concerns inhibiting HIV replication)
Format: cell-based
Details: Human immunodeficiency virus 1

In order of falling IC50:
1. CC(=O)Nc1ccc(C(=O)N2CCc3c2cc(C)c([C@H](OC(C)(C)C)C(=O)O)c3-c2cc(F)c3c(c2C)CCCO3)cc1 (atropisomer, axis not shown) [Example 104, (S)-2-((R)-1-(4-Acetamidobenzoyl)-4-(8-fluoro-5-methylchroman-6-yl)-6-methylindolin-5-yl)-2-(tert-butoxy)acetic acid]  323 nM
2. Cc1cc2c(c(-c3cc(F)c4c(c3C)CCCO4)c1[C@H](OC(C)(C)C)C(=O)O)CCN2C(=O)c1ccc(C(=O)N2CCCCC2)cc1 (atropisomer, axis not shown) [Example 112, (S)-2-(tert-Butoxy)-2-((R)-4-(8-fluoro-5-methylchroman-6-yl)-6-methyl-1-(4-(piperidine-1-carbonyl)benzoyl)indolin-5-yl)acetic acid]  295 nM
3. Cc1cc2c(c(-c3cc(F)c4c(c3C)CCCO4)c1[C@H](OC(C)(C)C)C(=O)O)CCN2C(=O)c1ccncc1F (atropisomer, axis not shown) [Example 91, (S)-2-(tert-Butoxy)-2-((R)-4-(8-fluoro-5-methylchroman-6-yl)-1-(3-fluoroisonicotinoyl)-6-methylindolin-5-yl)acetic acid]  156 nM
4. CNC(=O)c1ccc(C(=O)N2CCc3c2cc(C)c([C@H](OC(C)(C)C)C(=O)O)c3-c2cc(F)c3c(c2C)CCCO3)cc1 (atropisomer, axis not shown) [Example 95, (S)-2-(tert-Butoxy)-2-((R)-4-(8-fluoro-5-methylchroman-6-yl)-6-methyl-1-(4-(methylcarbamoyl)benzoyl)indolin-5-yl)acetic acid]  142 nM
5. Cc1cc2c(c(-c3cc(F)c4c(c3C)CCCO4)c1[C@H](OC(C)(C)C)C(=O)O)CCN2C(=O)c1c(F)cccc1F (atropisomer, axis not shown) [Example 111, (S)-2-(tert-Butoxy)-2-((R)-1-(2,6-difluorobenzoyl)-4-(8-fluoro-5-methylchroman-6-yl)-6-methylindolin-5-yl)acetic acid]  43 nM
6. Cc1cc2c(c(-c3cc(F)c4c(c3C)CCCO4)c1[C@H](OC(C)(C)C)C(=O)O)CCN2C(=O)c1cccc(C(F)(F)F)c1 (atropisomer, axis not shown) [Example 93, (S)-2-(tert-Butoxy)-2-((R)-4-(8-fluoro-5-methylchroman-6-yl)-6-methyl-1-(3-(trifluoromethyl)benzoyl)indolin-5-yl)acetic acid]  19 nM
7. Cc1cc2c(c(-c3cc(F)c4c(c3C)CCCO4)c1[C@H](OC(C)(C)C)C(=O)O)CCN2C(=O)c1cc(Cl)ccn1 (atropisomer, axis not shown) [Example 103, (S)-2-(tert-Butoxy)-2-((R)-1-(4-chloropicolinoyl)-4-(8-fluoro-5-methylchroman-6-yl)-6-methylindolin-5-yl)acetic acid]  16 nM
8. COc1ccc(OC)c(C(=O)N2CCc3c2cc(C)c([C@H](OC(C)(C)C)C(=O)O)c3-c2cc(F)c3c(c2C)CCCO3)c1 (atropisomer, axis not shown) [Example 106, (S)-2-(tert-Butoxy)-2-((R)-1-(2,5-dimethoxybenzoyl)-4-(8-fluoro-5-methylchroman-6-yl)-6-methylindolin-5-yl)acetic acid]  11 nM
9. Cc1cc2c(c(-c3cc(F)c4c(c3C)CCCO4)c1[C@H](OC(C)(C)C)C(=O)O)CCN2C(=O)c1cc(F)ccc1F (atropisomer, axis not shown) [Example 109, (S)-2-(tert-Butoxy)-2-((R)-1-(2,5-difluorobenzoyl)-4-(8-fluoro-5-methylchroman-6-yl)-6-methylindolin-5-yl)acetic acid]  11 nM
10. Cc1ccc(C(=O)N2CCc3c2cc(C)c([C@H](OC(C)(C)C)C(=O)O)c3-c2cc(F)c3c(c2C)CCCO3)cn1 (atropisomer, axis not shown) [Example 116, (S)-2-(tert-Butoxy)-2-((R)-4-(8-fluoro-5-methylchroman-6-yl)-6-methyl-1-(6-methylnicotinoyl)indolin-5-yl)acetic acid]  11 nM
11. Cc1cc2c(c(-c3cc(F)c4c(c3C)CCCO4)c1[C@H](OC(C)(C)C)C(=O)O)CCN2C(=O)c1cccc(Cl)c1Cl (atropisomer, axis not shown) [Example 92, (S)-2-(tert-Butoxy)-2-((R)-1-(2,3-dichlorobenzoyl)-4-(8-fluoro-5-methylchroman-6-yl)-6-methylindolin-5-yl)acetic acid]  6 nM
12. Cc1cc(F)cc(C(=O)N2CCc3c2cc(C)c([C@H](OC(C)(C)C)C(=O)O)c3-c2cc(F)c3c(c2C)CCCO3)c1 (atropisomer, axis not shown) [Example 97, (S)-2-(tert-Butoxy)-2-((R)-1-(3-fluoro-5-methylbenzoyl)-4-(8-fluoro-5-methylchroman-6-yl)-6-methylindolin-5-yl)acetic acid]  6 nM
13. COc1ncccc1C(=O)N1CCc2c1cc(C)c([C@H](OC(C)(C)C)C(=O)O)c2-c1cc(F)c2c(c1C)CCCO2 (atropisomer, axis not shown) [Example 90, (S)-2-(tert-Butoxy)-2-((R)-4-(8-fluoro-5-methylchroman-6-yl)-1-(2-methoxynicotinoyl)-6-methylindolin-5-yl)acetic acid]  5 nM
14. Cc1cc2c(c(-c3cc(F)c4c(c3C)CCCO4)c1[C@H](OC(C)(C)C)C(=O)O)CCN2C(=O)c1cccc2c1OCC2 (atropisomer, axis not shown) [Example 100, (S)-2-(tert-Butoxy)-2-((R)-1-(2,3-dihydrobenzofuran-7-carbonyl)-4-(8-fluoro-5-methylchroman-6-yl)-6-methylindolin-5-yl)acetic acid]  5 nM
15. COc1ccc(F)cc1C(=O)N1CCc2c1cc(C)c([C@H](OC(C)(C)C)C(=O)O)c2-c1cc(F)c2c(c1C)CCCO2 (atropisomer, axis not shown) [Example 101, (S)-2-(tert-Butoxy)-2-((R)-1-(5-fluoro-2-methoxybenzoyl)-4-(8-fluoro-5-methylchroman-6-yl)-6-methylindolin-5-yl)acetic acid]  5 nM
16. COc1ccc(C)c(C(=O)N2CCc3c2cc(C)c([C@H](OC(C)(C)C)C(=O)O)c3-c2cc(F)c3c(c2C)CCCO3)c1 (atropisomer, axis not shown) [Example 107, (S)-2-(tert-Butoxy)-2-((R)-4-(8-fluoro-5-methylchroman-6-yl)-1-(5-methoxy-2-methylbenzoyl)-6-methylindolin-5-yl)acetic acid]  5 nM
17. Cc1cc2c(c(-c3cc(F)c4c(c3C)CCCO4)c1[C@H](OC(C)(C)C)C(=O)O)CCN2C(=O)c1cccc2c1OCO2 (atropisomer, axis not shown) [Example 114, (S)-2-((R)-1-(Benzo[d][1,3]dioxole-4-carbonyl)-4-(8-fluoro-5-methylchroman-6-yl)-6-methylindolin-5-yl)-2-(tert-butoxy)acetic acid]  5 nM
18. Cc1ccc(C(=O)N2CCc3c2cc(C)c([C@H](OC(C)(C)C)C(=O)O)c3-c2cc(F)c3c(c2C)CCCO3)cc1Cl (atropisomer, axis not shown) [Example 115, (S)-2-(tert-Butoxy)-2-((R)-1-(3-chloro-4-methylbenzoyl)-4-(8-fluoro-5-methylchroman-6-yl)-6-methylindolin-5-yl)acetic acid]  5 nM
19. Cc1ccc(C(=O)N2CCc3c2cc(C)c([C@H](OC(C)(C)C)C(=O)O)c3-c2cc(F)c3c(c2C)CCCO3)cc1C (atropisomer, axis not shown) [Example 94, (S)-2-(tert-Butoxy)-2-((R)-1-(3,4-dimethylbenzoyl)-4-(8-fluoro-5-methylchroman-6-yl)-6-methylindolin-5-yl)acetic acid]  4 nM
20. Cc1cc2c(c(-c3cc(F)c4c(c3C)CCCO4)c1[C@H](OC(C)(C)C)C(=O)O)CCN2C(=O)c1cccc(F)c1C (atropisomer, axis not shown) [Example 96, (S)-2-(tert-Butoxy)-2-((R)-1-(3-fluoro-2-methylbenzoyl)-4-(8-fluoro-5-methylchroman-6-yl)-6-methylindolin-5-yl)acetic acid]  4 nM
21. COc1ccc(C)cc1C(=O)N1CCc2c1cc(C)c([C@H](OC(C)(C)C)C(=O)O)c2-c1cc(F)c2c(c1C)CCCO2 (atropisomer, axis not shown) [Example 99, (S)-2-(tert-Butoxy)-2-((R)-4-(8-fluoro-5-methylchroman-6-yl)-1-(2-methoxy-5-methylbenzoyl)-6-methylindolin-5-yl)acetic acid]  4 nM
22. Cc1ccc(C(=O)N2CCc3c2cc(C)c([C@H](OC(C)(C)C)C(=O)O)c3-c2cc(F)c3c(c2C)CCCO3)cc1 (atropisomer, axis not shown) [Example 108, (S)-2-(tert-Butoxy)-2-((R)-4-(8-fluoro-5-methylchroman-6-yl)-6-methyl-1-(4-methylbenzoyl)indolin-5-yl)acetic acid]  4 nM
23. Cc1cc(C(=O)N2CCc3c2cc(C)c([C@H](OC(C)(C)C)C(=O)O)c3-c2cc(F)c3c(c2C)CCCO3)ccc1Cl (atropisomer, axis not shown) [Example 110, (S)-2-(tert-Butoxy)-2-((R)-1-(4-chloro-3-methylbenzoyl)-4-(8-fluoro-5-methylchroman-6-yl)-6-methylindolin-5-yl)acetic acid]  4 nM
24. Cc1cc2c(c(-c3cc(F)c4c(c3C)CCCO4)c1[C@H](OC(C)(C)C)C(=O)O)CCN2C(=O)c1ccccc1Cl (atropisomer, axis not shown) [Example 98, (S)-2-(tert-Butoxy)-2-((R)-1-(2-chlorobenzoyl)-4-(8-fluoro-5-methylchroman-6-yl)-6-methylindolin-5-yl)acetic acid]  2 nM
25. COc1ccc(C(=O)N2CCc3c2cc(C)c([C@H](OC(C)(C)C)C(=O)O)c3-c2cc(F)c3c(c2C)CCCO3)cc1C (atropisomer, axis not shown) [Example 102, (S)-2-(tert-Butoxy)-2-((R)-4-(8-fluoro-5-methylchroman-6-yl)-1-(4-methoxy-3-methylbenzoyl)-6-methylindolin-5-yl)acetic acid]  2 nM
26. COc1c(C(=O)N2CCc3c2cc(C)c([C@H](OC(C)(C)C)C(=O)O)c3-c2cc(F)c3c(c2C)CCCO3)ccc(F)c1F (atropisomer, axis not shown) [Example 113, (S)-2-(tert-Butoxy)-2-((R)-1-(3,4-difluoro-2-methoxybenzoyl)-4-(8-fluoro-5-methylchroman-6-yl)-6-methylindolin-5-yl)acetic acid]  2 nM
